Test results taken from US20110160222A1, “MODULATORS OF GLUCOSE HOMEOSTASIS FOR THE TREATMENT OF DIABETES AND METABOLIC DISORDERS” (Metabolex, Inc., priority 2008, published 2011).

Target: T1, GPR119 (Homo sapiens, UniProt Q8TDV5)
T1 construct: expressed in transfected cells
T1 sequence (Q8TDV5 1-335): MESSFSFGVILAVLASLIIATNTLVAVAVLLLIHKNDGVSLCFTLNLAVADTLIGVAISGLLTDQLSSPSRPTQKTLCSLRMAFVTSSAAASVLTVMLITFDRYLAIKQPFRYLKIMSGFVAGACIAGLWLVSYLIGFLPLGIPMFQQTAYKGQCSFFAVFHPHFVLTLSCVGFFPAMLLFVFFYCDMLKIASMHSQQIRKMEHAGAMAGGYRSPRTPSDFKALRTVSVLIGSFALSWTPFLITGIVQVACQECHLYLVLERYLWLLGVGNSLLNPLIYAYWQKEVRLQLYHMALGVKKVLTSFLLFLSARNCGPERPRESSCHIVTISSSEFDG
Assay: Stimulation of cAMP in CHO cells stably expressing GPR119 (HTRF/FRET cAMP immunoassay)
Assay type: cell-based
Settings: 3 μM compound, 30 min, relative to maximal activity (=100%) of reference agonist 4-(4-{4-Nitro-3-[4-(pyridin-2-ylsulfanyl)-piperidin-1-yl]-phenoxy}-phenyl)-butan-2-one or 4-[6-(4-Methanesulfonyl-phenyl-amino)-5-nitro-pyrimidin-4-yl-oxy]-piperidine-1-carboxylic acid tert-butyl ester
Experimental: This assay was developed using a stable cell line expressing GPR119, generated as follows. GPR119 (co-pending, co-owned patent application U.S. Ser. No. 11/964,461) was cloned into Gateway pDEST 40vector (Invitrogen), using the Gateway cloning system (invitrogen) according to the manufacturer's instructions. A stable cell line was generated by transfecting a 10 cm plate of CHO cells (source) with 8 μg of this construct using Transit-CHO transfection kit (Mirus). CHO cells were plated the day prior to transfection at a density of 3,000,000 cells/plate. Clones were selected using the antibiotic G418 at 500 μg/mL. 23 clones were picked and assayed for the expression of the receptor by measuring changes in intracellular cAMP levels in response to a known GPR119 agonist.
To measure cAMP activity in response to GPR119 agonist, the clones were plated in 96 well plates at 17500 cells per well. On the day after plating, cells were incubated with the GPR119 agonist at 10 μM for 30 minutes in Ham's F12 Media (Gibco) with 0.04% DMSO. cAMP was measured using the cAMP dynamic kit from C is Bio (Bedford, Mass.) according to the manufacturer's instructions. Briefly, cells were lysed, and cAMP levels determined by competitive immunoassay using D2 labeled cAMP, and europium cryptate tagged anti cAMP antibody. When in close proximity, the D2 and europium cryptate undergo fluorescence resonance energy transfer (FRET), which is measured as a fluorescence ratio (665 nm/620 nm). Unlabelled cAMP in the cell lysate competed with the D2 labeled cAMP for the europium crypate labeled antibody. The resulting decrease in FRET signal corresponded to intracellular cAMP levels. Fluorescence was read on a BMG Labtech PHERAstar, software version 1.50.
The clone with the greatest response to IC-GPCR2 agonist was selected for the screening assay.
Compounds were dissolved in 100% DMSO to a concentration of […] to provide stock solutions. To determine activity against GPR119, compounds were incubated with GPR119 stably expressing cells (described above), at 6-8 concentrations ranging from 0.00003 to 10 micromolar, in 96 well plates, in 50 μl of Ham's F12 media for 30 minutes. Cells were plated at 17500 cells per well 1 day before running the assay. All compounds were also screened against the parental CHO cells. cAMP was measured using the cAMP dynamic kit from C is Bio (Bedford, Mass.), according to the manufacturer's instructions. Briefly, cells were lysed and cAMP levels determined by competitive immunoassay using D2 labeled cAMP, and europium cryptate tagged anti cAMP antibody. When in close proximity, the D2 and europium cryptate undergo fluorescence resonance energy transfer (FRET), which is measured as a fluorescence ratio (665 nm/620 nm). Unlabelled cAMP in the cell lysate competed with the D2 labeled cAMP for the europium crypate labeled antibody. The resulting decrease in FRET signal corresponded to intracellular cAMP levels.
To determine percent activity for a tested compound, the FRET signal value obtained at a particular concentration are compared to the Maximal FRET signal value obtained for 4-(4-{4-Nitro-3-[4-(pyridin-2-ylsulfanyl)-piperidin-1-yl]-phenoxy}-phenyl)-butan-2-one (WO 2004/076,413) or 4-[6-(4-Methanesulfonyl-phenyl-amino)-5-nitro-pyrimidin-4-yl-oxy]-piperidine-1-carboxylic acid tert-butyl ester (US 2005/070,562). The maximal activity of 4-(4-{4-Nitro-3-[4-(pyridin-2-ylsulfanyl)-piperidin-1-yl]-phenoxy}-phenyl)-butan-2-one or 4-[6-(4-Methanesulfonyl-phenyl-amino)-5-nitro-pyrimidin-4-yl-oxy]-piperidine-1-carboxylic acid tert-butyl ester is designated as 100% activity. Typically, the concentration 4-(4-{4-Nitro-3-[4-(pyridin-2-ylsulfanyl)-piperidin-1-yl]-phenoxy}-phenyl)-butan-2-one or 4-[6-(4-Methanesulfonyl-phenyl-amino)-5-nitro-pyrimidin-4-yl-oxy]-piperidine-1-carboxylic acid tert-butyl ester was approximately 10 μM. […]

| SMILES | % Activity at 3 uM [%] |
| --- | --- |
| CC(C)(C)OC(=O)N1CCC(n2ncc3c(Oc4ccc(S(C)(=O)=O)cc4)ncnc32)CC1 [Example 1, tert-butyl 4-(4-(4-(methylsulfonyl)phenoxy)-1H-pyrazolo[3,4-d]pyrimidin-1-yl)piperidine-1-carboxylate] | 59.01 |
| COc1ccc(Oc2ncnc3c2cnn3C2CCN(C(=O)OC(C)(C)C)CC2)cc1 [Example 2, tert-butyl 4-(4-(4-methoxyphenoxy)-1H-pyrazolo[3,4-d]pyrimidin-1-yl)piperidine-1-carboxylate] | 69.8 |
| CC(C)(C)OC(=O)N1CCC(n2ncc3c(Oc4ccc(Oc5ccc(C(F)(F)F)cc5)cc4)ncnc32)CC1 [Example 3, tert-butyl 4-(4-(4-(4-(trifluoromethyl)phenoxy)phenoxy)-1H-pyrazolo[3,4-d]pyrimidin-1-yl)piperidine-1-carboxylate] | 12.73 |
| CC(C)(C)OC(=O)N1CCC(n2ncc3c(Oc4ccc(-n5ccnc5)cc4)ncnc32)CC1 [Example 4, tert-butyl 4-(4-(4-(1H-imidazol-1-yl)phenoxy)-1H-pyrazolo[3,4-d]pyrimidin-1-yl)piperidine-1-carboxylate] | 69.49 |
| CC(C)(C)OC(=O)N1CCC(n2ncc3c(Sc4ccc(S(C)(=O)=O)cc4)ncnc32)CC1 [Example 5, tert-butyl 4-(4-(4-(methylsulfonyl)phenylthio)-1H-pyrazolo[3,4-d]pyrimidin-1-yl)piperidine-1-carboxylate] | 60.11 |
| CC(C)(C)OC(=O)N1CCC(n2ncc3c(Oc4ccc(Oc5ccccc5)cc4)ncnc32)CC1 [Example 6, tert-butyl 4-(4-(4-phenoxyphenoxy)-1H-pyrazolo[3,4-d]pyrimidin-1-yl)piperidine-1-carboxylate] | 56.96 |
| CC(C)(C)OC(=O)N1CCC(Cn2ncc3c(Oc4ccc(S(C)(=O)=O)cc4)ncnc32)CC1 [Example 50, tert-butyl 4-((4-(4-(methylsulfonyl)phenoxy)-1H-pyrazolo[3,4-d]pyrimidin-1-yl)methyl)piperidine-1-carboxylate] | 59.61 |
| CC(C)(C)OC(=O)N1CCC(Cn2ncc3c(Oc4ccc(S(C)(=O)=O)cc4)ncnc32)C1 (stereo not shown) [Example 61, tert-butyl 3-((4-(4-(methylsulfonyl)phenoxy)-1H-pyrazolo[3,4-d]pyrimidin-1-yl)methyl)pyrrolidine-1-carboxylate] | 74.66 |
| CC(C)(C)OC(=O)N1CCC(Cn2ncc3c(Oc4ccc(-n5cncn5)cc4)ncnc32)C1 (stereo not shown) [Example 62, tert-butyl 3-((4-(4-(1H-1,2,4-triazol-1-yl)phenoxy)-1H-pyrazolo[3,4-d]pyrimidin-1-yl)methyl)pyrrolidine-1-carboxylate] | 67.37 |
| CC(C)CS(=O)(=O)N1CCC(n2ncc3c(Oc4ccc(S(C)(=O)=O)cc4)ncnc32)CC1 [Example 63, 1-(1-(isobutylsulfonyl)piperidin-4-yl)-4-(4-(methylsulfonyl)phenoxy)-1H-pyrazolo[3,4-d]pyrimidine] | 51.02 |
| Cc1ccc(S(=O)(=O)N2CCC(n3ncc4c(Oc5ccc(S(C)(=O)=O)cc5)ncnc43)CC2)cc1 [Example 64, 4-(4-(methylsulfonyl)phenoxy)-1-(1-tosylpiperidin-4-yl)-1H-pyrazolo[3,4-d]pyrimidine] | 2.07 |
| CS(=O)(=O)c1ccc(Oc2ncnc3c2cnn3C2CCN(S(=O)(=O)Cc3ccccc3)CC2)cc1 [Example 65, 1-(1-(benzylsulfonyl)piperidin-4-yl)-4-(4-(methylsulfonyl)phenoxy)-1H-pyrazolo[3,4-d]pyrimidine] | 24.15 |
| CS(=O)(=O)c1ccc(Oc2ncnc3c2cnn3C2CCN(S(=O)(=O)C3CC3)CC2)cc1 [Example 66, 1-(1-(cyclopropylsulfonyl)piperidin-4-yl)-4-(4-(methylsulfonyl)phenoxy)-1H-pyrazolo[3,4-d]pyrimidine] | 9.73 |
| CN(c1ccc(S(C)(=O)=O)cc1)c1ncnc2c1nnn2C1CCN(C(=O)OC(C)(C)C)CC1 [Example 67, tert-butyl 4-(7-(methyl(4-(methylsulfonyl)phenyl)amino)-3H-[1,2,3]triazolo[4,5-d]pyrimidin-3-yl)piperidine-1-carboxylate] | 1.95 |
| CC(C)(C)OC(=O)N1CCC(n2nnc3c(Oc4ccc(S(C)(=O)=O)cc4)ncnc32)CC1 [Example 68, tert-butyl 4-(7-(4-(methylsulfonyl)phenoxy)-3H-[1,2,3]triazolo[4,5-d]pyrimidin-3-yl)piperidine-1-carboxylate] | 59.01 |
| CCOC(=O)N1CCC(n2nnc3c(Oc4ccc(S(C)(=O)=O)cc4)ncnc32)CC1 [Example 69, ethyl 4-(7-(4-(methylsulfonyl)phenoxy)-3H-[1,2,3]triazolo[4,5-d]pyrimidin-3-yl)piperidine-1-carboxylate] | 48.23 |
